# Measured values: PubChem BioAssay AID2060884 (Molecular Pharmacology Branch, DTP, NCI, 2025)
# Values joined by “and” are separate entries in the source; they are usually repeats but may differ in a detail not shown here. Identical values can stand only once.
# Tested on: NCI-H929 complex spheroids, viability % test/control
# Assay: Anticancer human tumor NCI-H929 cell line growth inhibition [RAS];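 further: compound exposure lasted seven days before viability was read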;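 on viability, T/C: 100% = DMSO vehicle control viability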
# Conditions: for viability, T/C: stronger effect = lower value
# In short: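 Agents were tested in combination matrices in half-log decrements from a top concentration at or near clinical Cmax (10 microM if undetermined). Targets were multi-cell spheroids of tumour lines plus HUVEC and MSC stromal cells.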
# [1] = curve of first compound, second compound 0.0316 µM
# [2] = curve of first compound, second compound 0.1 µM
# [3] = curve of first compound, second compound 0.316 µM
# [4] = curve of first compound, second compound 1 µM
# [5] = second compound 0.0316 µM, first compound 0.0316 µM
# [6] = second compound 0.0316 µM, first compound 0.1 µM
# [7] = second compound 0.0316 µM, first compound 0.316 µM
# [8] = second compound 0.0316 µM, first compound 1 µM
# [9] = second compound 0.1 µM, first compound 0.0316 µM
# [10] = second compound 0.1 µM, first compound 0.1 µM
# [11] = second compound 0.1 µM, first compound 0.316 µM
# [12] = second compound 0.1 µM, first compound 1 µM
# [13] = second compound 0.316 µM, first compound 0.0316 µM
# [14] = second compound 0.316 µM, first compound 0.1 µM
# [15] = second compound 0.316 µM, first compound 0.316 µM
# [16] = second compound 0.316 µM, first compound 1 µM
# [17] = second compound 1 µM, first compound 0.0316 µM
# [18] = second compound 1 µM, first compound 0.1 µM
# [19] = second compound 1 µM, first compound 0.316 µM
# [20] = second compound 1 µM, first compound 1 µM
compound,measurement,setting,value
NC1c2ccccc2OC12CCN(c1cnc3c(N4CCCc5ncccc54)n[nH]c3n1)CC2 (centres undefined) + C#Cc1c(F)ccc2cc(O)cc(-c3ncc4c(N5CC6CCC(C5)N6)nc(OCC56CCCN5CC(F)C6)nc4c3F)c12,IC50,[1],> 10 µM
same,IC50,[2],> 10 µM
same,IC50,[3],> 10 µM
same,IC50,[4],> 10 µM
same,IC50,"curve of first compound, second compound 3.16 µM",> 10 µM
same,IC50,"curve of first compound, second compound 10 µM",> 10 µM
same,"viability, T/C",[5],100%
same,"viability, T/C",[6],91.8%
same,"viability, T/C",[7],104%
same,"viability, T/C",[8],100%
same,"viability, T/C","second compound 0.0316 µM, first compound 3.16 µM",104%
same,"viability, T/C","second compound 0.0316 µM, first compound 10 µM",70.2%
same,"viability, T/C",[9],95.9%
same,"viability, T/C",[10],98%
same,"viability, T/C",[11],101%
same,"viability, T/C",[12],101%
same,"viability, T/C","second compound 0.1 µM, first compound 3.16 µM",105%
same,"viability, T/C","second compound 0.1 µM, first compound 10 µM",64.8%
same,"viability, T/C",[13],99.2%
same,"viability, T/C",[14],97.4%
same,"viability, T/C",[15],105%
same,"viability, T/C",[16],99.8%
same,"viability, T/C","second compound 0.316 µM, first compound 3.16 µM",104%
same,"viability, T/C","second compound 0.316 µM, first compound 10 µM",67.8%
same,"viability, T/C",[17],98.3%
same,"viability, T/C",[18],96.5%
same,"viability, T/C",[19],106%
same,"viability, T/C",[20],106%
same,"viability, T/C","second compound 1 µM, first compound 3.16 µM",99.7%
same,"viability, T/C","second compound 1 µM, first compound 10 µM",67.2%
same,"viability, T/C","second compound 3.16 µM, first compound 0.0316 µM",96.3%
same,"viability, T/C","second compound 3.16 µM, first compound 0.1 µM",98.7%
same,"viability, T/C","second compound 3.16 µM, first compound 0.316 µM",99%
same,"viability, T/C","second compound 3.16 µM, first compound 1 µM",101%
same,"viability, T/C","second compound 3.16 µM, first compound 3.16 µM",103%
same,"viability, T/C","second compound 3.16 µM, first compound 10 µM",59.5%
same,"viability, T/C","second compound 10 µM, first compound 0.0316 µM",95.9%
same,"viability, T/C","second compound 10 µM, first compound 0.1 µM",94.7%
same,"viability, T/C","second compound 10 µM, first compound 0.316 µM",98.6%
same,"viability, T/C","second compound 10 µM, first compound 1 µM",97.3%
same,"viability, T/C","second compound 10 µM, first compound 3.16 µM",82.1%
same,"viability, T/C","second compound 10 µM, first compound 10 µM",53.6%
C#Cc1c(F)ccc2cc(O)cc(-c3ncc4c(N5CC6CCC(C5)N6)nc(OCC56CCCN5CC(F)C6)nc4c3F)c12 (centres undefined),"viability, T/C",compound 0.0316 µM,102% [middle of 8 runs]
same,"viability, T/C",compound 0.1 µM,103% [middle of 8 runs]
same,"viability, T/C",compound 0.316 µM,101% [middle of 8 runs]
same,"viability, T/C",compound 1 µM,97% [middle of 8 runs]
same,"viability, T/C",compound 3.16 µM,97.6% [middle of 8 runs]
same,"viability, T/C",compound 10 µM,96.6% [middle of 8 runs]
same,IC50,"compound alone, run of 09/09/2024",> 10 µM
CCn1c(-c2cccnc2C(C)OC)c2c3cc(ccc31)N1CCOC(CC(NC(=O)C(C(C)C)N(C)C(=O)C3(F)CCN(C(=O)C#CC(C)(C)N(C)C)CC3)C(=O)N3CCCC(N3)C(=O)OCC(C)(C)C2)C1 (centres undefined),"viability, T/C",compound 0.000949 µM,107% [middle of 8 runs]
same,"viability, T/C",compound 0.003 µM,106% [middle of 8 runs]
same,"viability, T/C",compound 0.00949 µM,106% [middle of 8 runs]
same,"viability, T/C",compound 0.03 µM,104% [middle of 8 runs]
same,"viability, T/C",compound 0.0949 µM,99.9% [middle of 8 runs]
same,"viability, T/C",compound 0.3 µM,98.9% [middle of 8 runs]
same,IC50,"compound alone, run of 08/20/2024",> 0.3 µM
CC(C)NCC(C(=O)N1CCN(c2ncnc3c2C(C)CC3O)CC1)c1ccc(Cl)cc1 (centres undefined),"viability, T/C",compound 0.0316 µM,106% [middle of 4 runs]
same,"viability, T/C",compound 0.1 µM,102% [middle of 4 runs]
same,"viability, T/C",compound 0.316 µM,108% (2×) and 99.3% and 103%
same,"viability, T/C",compound 1 µM,104% (2×) and 62.6% and 71.6%
same,"viability, T/C",compound 10 µM,12.8% [middle of 4 runs]
same,IC50,curve of compound,3.45 µM [middle of 4 runs]
O=C(c1ccc(F)c(F)c1Nc1ccc(I)cc1F)N1CC(O)([C@@H]2CCCCN2)C1 + C=CC(=O)N1CCN(c2nc(OCC3CCCN3C)nc3c(F)c(-c4nc(N)cc(C)c4C(F)(F)F)c(Cl)cc23)C(C)C1,IC50,"curve of first compound, second compound 0.00316 µM",> 1 µM
same,IC50,"curve of first compound, second compound 0.01 µM",> 1 µM
same,IC50,[1],> 1 µM
same,IC50,[2],> 1 µM
same,IC50,[3],> 1 µM
same,IC50,[4],> 1 µM
same,"viability, T/C","second compound 0.00316 µM, first compound 0.00316 µM",101%
same,"viability, T/C","second compound 0.00316 µM, first compound 0.01 µM",92.1%
same,"viability, T/C","second compound 0.00316 µM, first compound 0.0316 µM",85.7%
same,"viability, T/C","second compound 0.00316 µM, first compound 0.1 µM",88.7%
same,"viability, T/C","second compound 0.00316 µM, first compound 0.316 µM",112%
same,"viability, T/C","second compound 0.00316 µM, first compound 1 µM",55.4%
same,"viability, T/C","second compound 0.01 µM, first compound 0.00316 µM",102%
same,"viability, T/C","second compound 0.01 µM, first compound 0.01 µM",91.2%
same,"viability, T/C","second compound 0.01 µM, first compound 0.0316 µM",83.5%
same,"viability, T/C","second compound 0.01 µM, first compound 0.1 µM",94.2%
same,"viability, T/C","second compound 0.01 µM, first compound 0.316 µM",112%
same,"viability, T/C","second compound 0.01 µM, first compound 1 µM",58.3%
same,"viability, T/C","second compound 0.0316 µM, first compound 0.00316 µM",96.9%
same,"viability, T/C","second compound 0.0316 µM, first compound 0.01 µM",96.8%
same,"viability, T/C",[5],88.6%
same,"viability, T/C",[6],95.2%
same,"viability, T/C",[7],112%
same,"viability, T/C",[8],57.4%
same,"viability, T/C","second compound 0.1 µM, first compound 0.00316 µM",99.2%
same,"viability, T/C","second compound 0.1 µM, first compound 0.01 µM",93.4%
same,"viability, T/C",[9],89.1%
same,"viability, T/C",[10],93.3%
same,"viability, T/C",[11],113%
same,"viability, T/C",[12],56.7%
same,"viability, T/C","second compound 0.316 µM, first compound 0.00316 µM",97.8%
same,"viability, T/C","second compound 0.316 µM, first compound 0.01 µM",101%
same,"viability, T/C",[13],84.3%
same,"viability, T/C",[14],92.7%
same,"viability, T/C",[15],117%
same,"viability, T/C",[16],54.4%
same,"viability, T/C","second compound 1 µM, first compound 0.00316 µM",106%
same,"viability, T/C","second compound 1 µM, first compound 0.01 µM",97.5%
same,"viability, T/C",[17],91.3%
same,"viability, T/C",[18],104%
same,"viability, T/C",[19],116%
same,"viability, T/C",[20],54%
